The source of these data is patent US11273172B2, “Synergistic combination of oligonucleotides and chemotherapeutic for treating cancer” (THE BOARD OF TRUSTEES OF THE UNIVERSITY OF ILLINOIS, priority 2017, dated 2022).

The test system of series [1] is JIMT1 breast cancer cells. The experiment in a line: MTT cell death assay, chemotherapeutic with and without MADD siRNA knockdown. The format is cell-based. The note with it: Doxorubicin 0.075 μM, siRNA 10 nM, 24 hours post Doxorubicin treatment. The method, then: (§1) Cells are cultured and maintained at 37° C. in a humidified atmosphere containing 5% CO2 as described above. On Day 0, Cells are seeded in […] tissue culture dishes (Corning; Cat Number: 353003) to attain 60-70% confluence. In parallel, cells are also seeded in one 96-well plate (Corning; Cat number: 353072) for analysis of survival before reseeding. After 12-18 hours (Day 1), cells are transfected with Scramble or MADD siRNA at 10 nM concentration. The sequences of siRNAs (double stranded) used are:
(§2) On Day 4, when cells are properly adhered and retained their shape in 96-well plates, drugs are added. Doxorubicin was added at a working concentration of 5.0 nM, 9.375 nM, 0.075 μM, 0.25 μM, 0.5 μM, and 0.8 μM. All drugs are diluted in complete media on the same day prior to the addition to the cells. In untreated cells, media is replaced with complete media. Two hundred μl volume of media (with or without drugs) is used for the drug treatment assay. Plates are incubated 24 hours, 48 hours and 72 hours at 37° C. in humidified CO2 incubator.
(§3) An MTT assay is performed to determine relative survival after drug treatment as described above. MTT (3-[4,5-Dimethylthiazol-2-yl]-2,5-diphenyltetrazolium bromide; Thiazolyl blue) is purchased from Sigma Aldrich (Cat number: M5655). MTT is dissolved in sterile DPBS at the concentration of 5 mg/ml and filtered through […] syringe filter (Corning; Cat number: 431220). Ten μl of MTT solution is added per well of 96-well plate. Plates are incubated for 2 hours at 37° C. in the humidified CO2 incubator. After 2 hours, media is aspirated using vacuum inside the biosafety hood. Purple colored crystals formed in viable cells are dissolved by adding 100 μl of Dimethyl sulfoxide (Thermo Fisher Scientific; Cat number D128-500). Plates are kept on shaker for 10 minutes for compete dissolution of crystals and absorbance is recorded at 595 nm using Bio-Rad iMark microplate reader. Data is analyzed in MICROSOFT EXCEL® software. Relative survival is calculated with respect to absorbance of control (untreated cells) to determine the effect of transfection as well as combination treatment.
(§4) Each data set takes into account any spontaneous cell death which is observed upon transfection with Scramble siRNA; the amount of spontaneous cell death from Scramble siRNA transfection (baseline) is subtracted from the amount of cell death observed in each siRNA transfection reaction to yield a Net Percent (Net %) cell death after accounting for Scrambled siRNA-induced cell death.

Series [2] relates to N87 gastric carcinoma cells. Described as above. The note with it: Doxorubicin 0.8 μM, siRNA 10 nM, 72 hours post Doxorubicin treatment. Format: cell-based. The method, then:
as §1, §2, §3, §4

Consider “MADD siRNA: siRNA targeting exon 13L of the MADD splice variant of the IG20 gene; SEQ ID NO: 4, 5′-GAUUGUCAUAGAUUCGCCGTT-3′ (chemistry not given here)”, for which the entries for the “Observed % Cell death” value in series [1] and in series [2] were 59% and 21%, respectively.

“Scrambled siRNA: non-specific Scramble siRNA, negative control; SEQ ID NO: 5, 5′-UUGCUAAGCGUCGGUCAAUTT-3′ (chemistry not given here)”: in series [1], the “Net % cell death after accounting for Scrambled siRNA” value was 33 − 33 = 0% and the “Observed % Cell death” value is given as 33%. Besides, in series [2], the “Net % cell death after accounting for Scrambled siRNA” value is 14 − 14 = 0% and the “Observed % Cell death” value is listed as 14%.
